Assay results published in ChEMBL document CHEMBL5154782, “Discovery of Potent PROTACs Targeting EGFR Mutants through the Optimization of Covalent EGFR Ligands” (J Med Chem, 2022).
Each block holds one compound with its values, some of them ahead of it. Active and inactive are the calls of the source. The calls are words filed in the database; no cut-off is given here.

What was measured:
NCI-H1975 [1] = assay: Antiproliferative activity against human NCI-H1975 cells expressing EGFR L858R/T790M mutant assessed as inhibition of cell proliferation; type: functional, cell-based
[2] = target: T1, von Hippel-Lindau disease tumor suppressor/Epidermal growth factor receptor (Homo sapiens, UniProt P00533+P40337); assay: Protac activity at VHL/EGFR deletion19 mutant in human HCC827 cells assessed as induction of EGFR degradation; type: cell-based
HCC827 [3] = assay: Antiproliferative activity against human HCC827 cells expressing EGFR deletion19 mutant assessed as inhibition of cell proliferation; type: functional, cell-based
NCI-H1975 [4] = assay: Antiproliferative activity against human NCI-H1975 cells expressing EGFR L858R/T790M mutant assessed as inhibition of cell proliferation incubated for 72 hrs by MTT assay; type: functional, cell-based; settings: NCI-H1975, 72 h
HCC827 [5] = assay: Antiproliferative activity against human HCC827 cells expressing EGFR deletion19 mutant assessed as inhibition of cell proliferation incubated for 72 hrs by MTT assay; type: functional, cell-based; settings: HCC827, 72 h
[6] = target: von Hippel-Lindau disease tumor suppressor/Epidermal growth factor receptor (Homo sapiens, UniProt P00533+P40337, L858R); assay: Protac activity at VHL/EGFR L858R mutant (unknown origin) assessed as inhibition of EGFR incubated for 40 mins in presence of ATP by Kinase Glo luminescence assay; type: protein assay
A-431 = assay: Antiproliferative activity against human A-431 cells expressing EGFR wildtype assessed as inhibition of cell proliferation incubated for 72 hrs by MTT assay; type: functional, cell-based; settings: A-431, 72 h
[7] = target: von Hippel-Lindau disease tumor suppressor/Epidermal growth factor receptor (Homo sapiens, UniProt P00533+P40337, L858R/T790M); assay: Protac activity at VHL/EGFR L858R/T790M mutant (unknown origin) assessed as inhibition of EGFR incubated for 40 mins in presence of ATP by Kinase Glo luminescence assay; type: protein assay
HCC827 [8] = assay: Antiproliferative activity against human […] assessed as inhibition of cell proliferation incubated for 72 hrs by MTT assay; type: functional, cell-based; settings: HCC827, 72 h
[9] = target: T1, von Hippel-Lindau disease tumor suppressor/Epidermal growth factor receptor; assay: Protac activity at VHL/EGFR deletion19 mutant in human HCC827 cells assessed as induction of EGFR degradation under starvation condition; type: cell-based
[10] = system: Protein cereblon/Epidermal growth factor receptor (Homo sapiens), P00533+Q96SW2 [L858R,T790M]; assay: Protac activity at CRBN/EGFR L858R/T790M mutant in mouse BaF3 cells assessed as induction of EGFR degradation at 100 nM; type: cell-based
[11] = system: Protein cereblon/Epidermal growth factor receptor (Homo sapiens), P00533+Q96SW2 [L858R,T790M,C797S]; assay: Protac activity at CRBN/EGFR L858R/T790M/C797S mutant in mouse BaF3 cells assessed as induction of EGFR degradation at 100 nM; type: cell-based
[12] = system: von Hippel-Lindau disease tumor suppressor/Epidermal growth factor receptor (Homo sapiens), P00533+P40337 [UNDEFINED MUTATION]; assay: Protac activity at VHL/EGFR/deletion19 in human HCC827 cells assessed as induction of EGFR degradation at 30 nM incubated for 24 hrs by Western blot analysis relative to control; type: cell-based
[13] = system: von Hippel-Lindau disease tumor suppressor/Epidermal growth factor receptor (Homo sapiens), P00533+P40337 [L858R,T790M]; assay: Protac activity at VHL/EGFR L858R/T790M mutant in human NCI-H1975 cells assessed as induction of EGFR degradation at 100 nM incubated for 24 hrs by Western blot analysis relative to control; type: cell-based
[14] = system: von Hippel-Lindau disease tumor suppressor/Epidermal growth factor receptor (Homo sapiens), P00533+P40337 [UNDEFINED MUTATION]; assay: Protac activity at VHL/EGFR/deletion19 in human HCC827 cells assessed as induction of EGFR degradation at 3 nM incubated for 24 hrs by Western blot analysis relative to control; type: cell-based
HCC827 [15] = assay: Inhibition of colony formation in human HCC827 cells at 1 to 30 nM incubated for 10 days by crystal violet based assay; type: functional, cell-based; settings: dose 1-30 nM, time 10.0 day
[16] = system: von Hippel-Lindau disease tumor suppressor/Epidermal growth factor receptor (Homo sapiens), P00533+P40337 [L858R,T790M]; assay: Protac activity at VHL/EGFR L858R/T790M mutant in human NCI-H1975 cells assessed as induction of EGFR degradation at 10 nM incubated for 24 hrs by Western blot analysis relative to control; type: cell-based
NCI-H1975 [17] = assay: Inhibition of colony formation in human NCI-H1975 cells at 1 to 30 nM incubated for 10 days by crystal violet based assay; type: functional, cell-based; settings: dose 1-30 nM, time 10.0 day
[18] = system: von Hippel-Lindau disease tumor suppressor/Epidermal growth factor receptor (Homo sapiens), P00533+P40337 [UNDEFINED MUTATION]; assay: Protac activity at VHL/EGFR/deletion19 in human HCC827 cells assessed as induction of EGFR degradation at 1 to 30 nM incubated for 24 hrs by Western blot analysis; type: cell-based; settings: dose 1-30 nM
BaF3 [19] = assay: Antiproliferative activity against mouse BaF3 cells expressing EGFR L858R/T790M/C797S mutant assessed as reduction on cell growth incubated for 72 hrs by MTT assay; type: toxicity, cell-based; settings: BaF3, 72 h
BaF3 [20] = assay: Antiproliferative activity against mouse BaF3 cells expressing EGFR deletion19/T790M/C797S mutant assessed as reduction on cell growth incubated for 72 hrs by MTT assay; type: toxicity, cell-based; settings: BaF3, 72 h
PC-9 = assay: Antiproliferative activity against human PC-9 cells expressing EGFR deletion19/T790M/C797S mutant assessed as reduction on cell growth growth incubated for 72 hrs by MTT assay; type: functional, cell-based; settings: PC-9, 72 h
NCI-H1975 [21] = assay: Antiproliferative activity against human NCI-H1975 cells expressing EGFR L858R/T790M/C797S mutant assessed as reduction on cell growth incubated for 72 hrs by MTT assay; type: functional, cell-based; settings: NCI-H1975, 72 h
[22] = target: von Hippel-Lindau disease tumor suppressor/Epidermal growth factor receptor (Homo sapiens, UniProt P00533+P40337, T790M/L858R); assay: Protac activity at VHL/EGFR L858R/T790M mutant in human NCI-H1975 cells assessed as induction of EGFR degradation; type: cell-based
[23] = target: T1, von Hippel-Lindau disease tumor suppressor/Epidermal growth factor receptor; assay: Protac activity at VHL/EGFR deletion19 mutant in human PC9 cells assessed as induction of EGFR degradation; type: cell-based; settings: pc-9
[24] = system: von Hippel-Lindau disease tumor suppressor/Epidermal growth factor receptor (Homo sapiens), P00533+P40337 [L858R,T790M]; assay: Protac activity at VHL/[…] cells assessed as induction of EGFR degradation at 100 nM incubated for 24 hrs by Western blot analysis relative to control; type: cell-based
[25] = system: von Hippel-Lindau disease tumor suppressor/Epidermal growth factor receptor (Homo sapiens), P00533+P40337 [L858R,T790M]; assay: Protac activity at VHL/[…] cells assessed as induction of EGFR degradation at 1000 nM incubated for 24 hrs by Western blot analysis relative to control; type: cell-based
[26] = system: von Hippel-Lindau disease tumor suppressor/Epidermal growth factor receptor (Homo sapiens), P00533+P40337 [L858R,T790M]; assay: Protac activity at VHL/EGFR L858R/T790M mutant in human NCI-H1975 cells assessed as induction of EGFR degradation at 1000 nM incubated for 24 hrs by Western blot analysis relative to control; type: cell-based

IC50 (NCI-H1975 [1]): 510 nM
SMILES: C=CC(=O)Nc1cccc(-n2c(=O)cc(C)c3cnc(Nc4ccc(N5CCN(CCCCCC(=O)N[C@H](C(=O)N6C[C@H](O)C[C@H]6C(=O)NCc6ccc(-c7scnc7C)cc6)C(C)(C)C)CC5)cc4OC)nc32)c1

SMILES: O=C1CCC(N2Cc3c(NC(=O)CCCCCCN4CCN(c5ccc(Nc6cc7c(N8CCC(CO)CC8)nc(Nc8ccc(F)cc8)nc7cn6)nc5)CC4)cccc3C2=O)C(=O)N1 (stereo not drawn)
DC50 [2]: 34.8 nM | IC50 (HCC827 [3]): 220 nM

SMILES: COc1cc2ncnc(Nc3ccc(F)c(Cl)c3)c2cc1OCCCCCOCCOCCC(=O)N[C@H](C(=O)N1C[C@H](O)C[C@H]1C(=O)NCc1ccc(-c2scnc2C)cc1)C(C)(C)C
DC50 [2]: 11.7 nM

SMILES: C=CC(=O)N1CC[C@H](n2c(Nc3ccccc3)nc3cnc(Nc4ccc(N5CCN(C)CC5)cc4)nc32)C1
IC50 (NCI-H1975 [4]): 15 nM | IC50 (HCC827 [5]): 0.47 nM | IC50 [6]: 10 nM | IC50 (A-431): 2.91 µM | IC50 [7]: 23 nM

IC50 (NCI-H1975 [4]): 1060 nM | IC50 (HCC827 [8]): 6.49 nM
SMILES: C=CC(=O)N1CCC[C@@H](n2c(Nc3ccccc3)nc3cnc(Nc4ccc(N5CCN(CCCCCCCC(=O)N[C@H](C(=O)N6C[C@H](O)C[C@H]6C(=O)N[C@@H](C)c6ccc(-c7scnc7C)cc6)C(C)(C)C)CC5)cc4)nc32)C1

SMILES: COc1cc2ncnc(Nc3ccc(F)c(Cl)c3)c2cc1OCCCN1CCN(C(=O)CCCCCCCCCC(=O)N[C@H](C(=O)N2C[C@H](O)C[C@H]2C(=O)NCc2ccc(-c3scnc3C)cc2)C(C)(C)C)CC1
DC50 [9]: 5 nM

SMILES: O=C1CCC(N2C(=O)c3cccc(NCCOCCOCCOCCN4CCN(c5ccc(-c6ccc7c(c6)C(=O)N(C(C(=O)Nc6nccs6)c6ccccc6)C7)cn5)CC4)c3C2=O)C(=O)N1 (stereo not drawn)
Activity [10]: 59% | Activity [11]: 74%

SMILES: C=CC(=O)N1CCC[C@H](n2c(Nc3ccccc3)nc3cnc(Nc4ccc(N5CCN(CCCCCCCC(=O)N[C@H](C(=O)N6C[C@H](O)C[C@H]6C(=O)NCc6ccc(-c7scnc7C)cc6)C(C)(C)C)CC5)cc4)nc32)C1
Activity [12]: 78% | Activity [13]: 74% | Activity [14]: 69% | inhibition (HCC827 [15]): Active | IC50 (NCI-H1975 [4]): 39 nM | Activity [16]: < 20% | IC50 (HCC827 [5]): 2.55 nM | inhibition (NCI-H1975 [17]): Active | IC50 (A-431): > 10 µM

IC50 (NCI-H1975 [4]): 550 nM | IC50 (HCC827 [8]): 12.4 nM
SMILES: C=CC(=O)N1CC[C@@H](n2c(Nc3ccccc3)nc3cnc(Nc4ccc(N5CCN(CCCCCCC(=O)N[C@H](C(=O)N6C[C@H](O)C[C@H]6C(=O)NCc6ccc(-c7scnc7C)cc6)C(C)(C)C)CC5)cc4)nc32)C1

SMILES: C=CC(=O)N1CC[C@H](n2c(Nc3ccccc3)nc3cnc(Nc4ccc(N5CCN(CCCCCCC(=O)N[C@H](C(=O)N6C[C@H](O)C[C@H]6C(=O)NCc6ccc(-c7scnc7C)cc6)C(C)(C)C)CC5)cc4)nc32)C1
Activity [12]: 81% | Activity [13]: 79% | Activity [14]: 65% | IC50 (NCI-H1975 [4]): 44 nM | Activity [16]: 38% | IC50 (HCC827 [5]): 1.66 nM | IC50 (HCC827 [8]): 1.86 nM | IC50 (A-431): > 10 µM

SMILES: Cc1ncsc1-c1ccc(CNC(=O)[C@@H]2C[C@@H](O)CN2C(=O)[C@@H](NC(=O)CCCCCCN2CCN(c3ccc(Nc4ncc5nc(Nc6ccccc6)n(C6CCCC6)c5n4)cc3)CC2)C(C)(C)C)cc1
DC50 [2]: 0.51 nM | IC50 (HCC827 [3]): 0.76 nM

SMILES: CCC(=O)N1CCC[C@H](n2c(Nc3ccccc3)nc3cnc(Nc4ccc(N5CCN(CCCCCCCC(=O)N[C@H](C(=O)N6C[C@H](O)C[C@H]6C(=O)N[C@@H](C)c6ccc(-c7scnc7C)cc6)C(C)(C)C)CC5)cc4)nc32)C1
Activity [18]: Active | IC50 (NCI-H1975 [4]): 2900 nM | IC50 (HCC827 [5]): 5.39 nM

IC50 (PC-9): 45 nM | IC50 (NCI-H1975 [21]): 910 nM
SMILES: COc1cc(N2CCC(N3CCN(C)CC3)CC2)c(C)cc1Nc1ncc(Br)c(Nc2ccc3nccnc3c2P(C)(C)=O)n1
IC50 (BaF3 [19]): 21 nM | IC50 (BaF3 [20]): 17 nM

SMILES: C=CC(=O)Nc1cc2c(Nc3ccc(F)c(Cl)c3)ncnc2cc1OCCCN1CCN(C(=O)CCCCCCNc2cccc3c2C(=O)N(C2CCC(=O)NC2=O)C3=O)CC1 (stereo not drawn)
IC50 (NCI-H1975 [1]): 26.5 nM | DC50 [22]: < 30 nM | DC50 [23]: 100 nM

SMILES: C=CC(=O)N1CCC[C@H](n2c(Nc3ccccc3)nc3cnc(Nc4ccc(N5CCN(C)CC5)cc4)nc32)C1
Activity [13]: < 20% | IC50 (NCI-H1975 [4]): 12 nM | IC50 (HCC827 [5]): 0.33 nM | IC50 [6]: 21 nM | IC50 (A-431): 7.09 µM | IC50 [7]: 38 nM

SMILES: COc1cc(N(C)CCN(C)C)c(NC(=O)/C(C#N)=C/C(C)(C)NC(=O)CCCCCCC(=O)N[C@H](C(=O)N2C[C@H](O)C[C@H]2C(=O)NCc2ccc(-c3scnc3C)cc2)C(C)(C)C)cc1Nc1nccc(-c2cn(C)c3ccccc23)n1
Activity [24]: < 20% | Activity [13]: < 20% | IC50 (NCI-H1975 [4]): 2360 nM | Activity [25]: 26% | IC50 (HCC827 [5]): 544 nM | Activity [26]: < 20% | IC50 [7]: 857 nM
